Tests used:
[1] = tested on: Caco-2 colorectal adenocarcinoma cells; assay: MTT cell viability assay, Caco-2; settings: for IC50 / viability at 10 µM: Homo sapiens, Caco-2, 72 h; for IC50: read-out: IC50 Caco-2; for viability at 10 µM: read-out: cell viability percentage in relation to control, Caco-2; for SI Caco-2 (selectivity index, cancer versus non-cancer cell line NHDF): Caco-2 versus NHDF, 72 h
Method: (§1) To evaluate the anticancer potential of monomethine cyanine dyes 1–12, a cell proliferation study was conducted using the 3-(4,5-dimethylthiazol-2-yl)-2,5-diphenyltetrazolium bromide (MTT) assay. For this preliminary evaluation, a concentration of 10 µM for each dye was tested, with the well-established chemotherapy agent 5-fluorouracil (5-FU) serving as a positive control. The assay included normal human dermal fibroblasts (NHDF) as non-tumor cells, alongside tumor cell lines from colorectal (Caco-2), prostate (PC-3), and breast (MCF-7) adenocarcinomas.
(§2) The cell lines used in this study (Caco-2, MCF-7, PC-3, and NHDF) were obtained from the American Type Culture Collection (ATCC, Manassas, VA, USA) and cultured in 75 cm^2 culture flasks at 37 °C in a humidified atmosphere with 5% CO2 in a LEEC Culture Safe Precision CO2 Incubator. PC-3 cells were grown in Roswell Park Memorial Institute (RPMI) medium supplemented with 10% of inactivated Fetal Bovine Serum (FBS) and 1% of an antibiotic mixture (Sp; 10,000 U/mL of penicillin G and […] of streptomycin). MCF-7 and Caco-2 cell lines were both cultured using Dulbecco’s Modified Eagle Medium (DMEM). However, the medium for MCF-7 cells was complemented with 10% of inactivated FBS and 1% of antibiotic/antimycotic mixture (Ab; 10,000 U/mL of penicillin G, […] of streptomycin and 25 µg/mL of amphotericin B), and the medium for Caco-2 cells was supplemented with 20% of inactivated FBS and 1% of Sp. Finally, RPMI medium supplemented with 10% FBS, 2 mM of L-glutamine, 10 mM of 4-(2-hydroxyethyl)-1-piperazineethanesulfonic acid (HEPES), 1 mM of sodium pyruvate, and 1% of Ab was used to culture NHDF cells. The culture media were renewed every two to three days until near confluence was achieved. Then, cells were detached using a solution of 0.125 g/L of trypsin and 0.02 g/L of ethylenediaminetetracetic acid (EDTA), counted by the trypan blue method, resuspended, and adequately seeded to continue the culture in 75 cm^2 flasks or for the experiments described below. All manipulations were performed in a Labculture Class II A2 Biological Safety Cabinet.
(§3) After trypsinization, cells were seeded in 96-well culture plates (100 µL; 2 × 10^4 cells/mL), and after 48 h (for adherence), they were incubated with the compounds under study in the absence of light for a duration of 72 h. Then, the medium was removed, and fresh incomplete culture medium (without FBS and Ab or Sp) and MTT solution [5 mg/mL in phosphate buffer saline (PBS)] were added to each well, followed by 4 h of incubation. After this, the medium containing MTT was removed and DMSO was added to dissolve formazan crystals. The absorbance of each well at 570 nm was determined using a microplate spectrophotometer Bio-Rad (Hercules, CA, USA) xMark. Untreated cells were considered the negative control, and 5-FU, a clinically used drug, was considered the positive control. For data analysis, the relative cell proliferation relative to the negative control cells was calculated. For each cell viability study, at least two independent assays in quadruplicate were performed. Increasing concentrations of the compounds between 0.001 and 100 μM were used to determine the IC50 values.

[2] = MTT cell viability assay, Caco-2; settings: human
Method: as §1, §2, §3

Caco-2 cells = assay: Cell cycle distribution by PI staining and flow cytometry; format: cell-based, human
Method: After excluding sub-G1 events, we proceeded to evaluate the impact of dyes 5 and 10 on cell cycle distribution.
Apoptosis (sub-G1 events) and cell cycle distribution were evaluated by propidium iodide (PI) staining and flow cytometry, as described by Riccardi and Nicolleti. After 48 h of Caco-2 cells (2 mL; 3 × 10^4 cells/mL) adherence in 6-well plates, the culture medium was substituted with the test solutions (3 mL and 5 mL for negative control) and incubated for a further 72 or 120 h. Untreated cells were used as the negative control, and sorbitol and 5-FU were used as positive controls. After incubation, the supernatant was collected in a centrifuge tube, cells were washed with PBS, trypsinized and wells were once again washed with PBS. This cell suspension was maintained on ice, centrifugated at 300 g for 5 min, and then the pellet was resuspended in 0.5 mL of PBS. Cells were fixed by adding 4.5 mL of 70% ethanol cooled at −20 °C on ice and were stored at −20 °C for a period ranging from one to a few days. On the day of flow cytometry analysis, PBS was added to the fixed cell tubes, followed by centrifugation and removal of the supernatant. The pellet was resuspended in 0.5 mL of PBS and 0.5 mL of DNA extraction solution (192 mL of 0.2 M sodium phosphate and 8 mL of 0.1% Triton X-100, pH 7.8). After incubation for 5 min, the cells were once again centrifuged, the supernatant was removed, and the pellet was resuspended in 0.3 mL of staining solution (20 µg/mL of PI and 0.2 mg/mL of DNase-free RNase in PBS). Using a FACSCalibur flow cytometer (Becton Dickinson, Franklin Lakes, NJ, USA) with a 488 nm laser line, a minimum of 20,000 events were acquired and recorded using the BD CellQuestTM Pro 4.0.2 software, and analyzed with FlowJo 10.5.3 software. To exclude debris and necrotic cells, events with a lower diameter (forward scatter; FCS) and PI fluorescence (FL3) than the hypodiploid apoptotic cells were eliminated (Figures S1 and S2). Two independent experiments were performed. A Student’s t-test was performed to evaluate the statistical significance of the results.

[3] = target: T1, topoisomerase II (Topo II) (Homo sapiens, UniProt P11388); assay: Topoisomerase II inhibitory assay (pRYG DNA relaxation, agarose gel); format: biochemical; settings: 50 µM, 5.0 units Topo II, 250.0 ng pRYG DNA, mean ± SD of two assays
T1 construct: purchased TopoGEN Inc. (Buena Vista, CO, USA) 1009-1
T1 sequence (P11388 whole entry): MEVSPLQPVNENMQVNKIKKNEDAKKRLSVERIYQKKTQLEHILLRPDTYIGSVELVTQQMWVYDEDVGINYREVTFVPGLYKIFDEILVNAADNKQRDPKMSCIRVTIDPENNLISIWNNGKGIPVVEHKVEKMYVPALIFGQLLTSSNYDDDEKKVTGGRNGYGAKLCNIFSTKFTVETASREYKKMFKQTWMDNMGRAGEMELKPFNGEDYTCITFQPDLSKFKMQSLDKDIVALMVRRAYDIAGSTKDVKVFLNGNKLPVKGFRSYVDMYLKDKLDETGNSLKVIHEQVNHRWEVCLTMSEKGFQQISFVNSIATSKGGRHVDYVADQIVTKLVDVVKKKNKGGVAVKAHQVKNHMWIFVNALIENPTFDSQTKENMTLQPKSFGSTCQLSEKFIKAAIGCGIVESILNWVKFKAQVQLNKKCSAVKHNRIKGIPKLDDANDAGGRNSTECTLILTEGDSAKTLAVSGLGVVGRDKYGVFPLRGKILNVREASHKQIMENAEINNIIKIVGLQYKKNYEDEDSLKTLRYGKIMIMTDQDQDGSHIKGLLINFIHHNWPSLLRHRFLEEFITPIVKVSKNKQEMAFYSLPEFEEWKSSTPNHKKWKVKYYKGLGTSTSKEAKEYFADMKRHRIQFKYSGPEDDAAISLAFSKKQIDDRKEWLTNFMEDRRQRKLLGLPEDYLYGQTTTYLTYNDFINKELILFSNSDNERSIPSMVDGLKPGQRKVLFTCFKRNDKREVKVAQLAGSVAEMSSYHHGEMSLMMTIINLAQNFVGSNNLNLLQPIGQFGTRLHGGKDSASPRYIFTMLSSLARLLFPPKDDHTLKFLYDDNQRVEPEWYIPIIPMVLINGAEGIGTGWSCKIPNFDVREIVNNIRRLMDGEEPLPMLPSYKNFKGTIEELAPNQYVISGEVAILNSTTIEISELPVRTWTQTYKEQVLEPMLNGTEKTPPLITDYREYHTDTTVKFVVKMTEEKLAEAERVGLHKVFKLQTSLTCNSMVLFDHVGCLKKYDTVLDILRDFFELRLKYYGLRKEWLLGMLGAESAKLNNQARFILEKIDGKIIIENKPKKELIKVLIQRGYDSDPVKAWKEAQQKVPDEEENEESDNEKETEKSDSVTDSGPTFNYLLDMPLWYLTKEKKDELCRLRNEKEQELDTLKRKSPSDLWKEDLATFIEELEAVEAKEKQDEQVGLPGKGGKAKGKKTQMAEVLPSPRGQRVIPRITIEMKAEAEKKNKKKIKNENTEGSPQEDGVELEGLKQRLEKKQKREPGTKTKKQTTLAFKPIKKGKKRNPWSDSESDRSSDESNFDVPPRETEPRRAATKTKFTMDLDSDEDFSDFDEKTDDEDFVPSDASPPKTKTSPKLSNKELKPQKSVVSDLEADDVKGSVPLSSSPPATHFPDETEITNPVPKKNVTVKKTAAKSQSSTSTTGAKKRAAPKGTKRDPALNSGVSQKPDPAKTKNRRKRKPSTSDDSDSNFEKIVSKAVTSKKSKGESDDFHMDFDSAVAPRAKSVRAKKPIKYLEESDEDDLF
Method: To do so, the impact of cyanines on Topo II activity was assessed using a pRYG DNA substrate in the presence and absence of the dyes. This was monitored via a Topo II drug screening kit followed by agarose gel electrophoresis. […] All samples applied to the agarose gel contained 5.0 units of Topo II and 250.0 ng of pRYG DNA as the substrate. Linear pRYG DNA (Lane DNA marker) served as the reference control for the DNA band positions, and 50 µM VP-16 (Lane 3) was used as a positive control. […]
The formation of relaxed DNA products, indicating Topo II activity, is visible in Lane 1 (incubation of pRYG DNA with Topo II) of Figure 8A. […] The intensity of the relaxed DNA bands from two independent experiments was quantified for all samples and normalized to the Topo II activity in the absence of inhibitors (No drug sample, Lane 1) using Image Lab, Version 6.1 (Figure 8B). […]
Cyanine stock solutions in DMSO were further diluted with Tris-HCl (DMSO:Tris-HCl–1:9) to the concentrations desired for assays. […] Electrophoresis was run at 110 V for 40 min and analyzed under ultraviolet (UV) light using a FireReader Imaging System (UVITEC, Cambridge, UK). Band intensities were measured using the software Image Lab, Version 6.1 (BioRad Laboratories, Hercules, CA, USA). […]

[4] = Caco-2, SI Caco-2 (selectivity index, cancer versus non-cancer cell line NHDF), Caco-2 versus NHDF, 72 h

Structure (SMILES)	IC50 [1] [nM]	viability at 10 µM [1] [%]	selectivity ratio at 72 h ([2]; Caco-2)	proportion of cells in G0/G1 phase (Caco-2 cells; Caco-2, 10 µM, 72 h)	proportion of cells in S phase (Caco-2 cells; Caco-2, 10 µM, 72 h)	relative intensity of relaxed DNA band (normalized to No drug sample) [3]	SI Caco-2 (selectivity index, cancer versus non-cancer cell line NHDF) [1]	selectivity ratio at 72 h [2, 4]	effect on cell cycle distribution (Caco-2 cells; Caco-2, 1 µM, 72 and 120 h)	proportion of cells in G2/M phase (Caco-2 cells; Caco-2, 10 µM, 72 h) [%]
O=c1[nH]cc(F)c(=O)[nH]1 [5-FU, 5-fluorouracil, reference compound]	1110	30.1 ± 1.24	4.1	10.1%	around 80.3%	–	–	–	–	–
CN1C(=Cc2oc3ccccc3[n+]2C)C=Cc2ccccc21.Cc1ccc(S(=O)(=O)[O-])cc1 [Dye 5, 3-Methyl-2-((1-methylquinolin-2(1H)-ylidene)methyl)benzo[d]oxazol-3-ium 4-methylbenzenesulfonate]	10	5.05 ± 0.19	–	–	–	0.31 ± 0.063	278.3	278	did not significantly alter the cell cycle distribution	–
CCN1C(=Cc2sc3cc([N+](=O)[O-])ccc3[n+]2CC)Sc2ccccc21.Cc1ccc(S(=O)(=O)[O-])cc1 [Dye 10, 3-Ethyl-2-((3-ethylbenzo[d]thiazol-2(3H)-ylidene)methyl)-6-nitrobenzo[d]thiazol-3-ium 4-methylbenzenesulfonate]	140	18.6 ± 0.65	–	approximately 62.0%	–	0.65 ± 0.024	151.4	151	–	6.6
